In ChEMBL document CHEMBL1201862, “PubChem BioAssay data set” (2004):
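Compound exposure: 48 hours, 5 concentrations, 96-well plates. GI50: concentration for 50% inhibition of growth.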 Activity calls are given as the source filed them. Cut-off read from the data, not from the text of the source: active = GI50 up to about 1.1 µM and inactive = higher.

Key:
Assay in all cases: growth of human tumour cells (NCI), 48 h
[1] = test system: EKVX
[2] = test system: SK-MEL-2
[3] = test system: OVCAR-8
[4] = test system: DU-145
[5] = test system: IGROV-1
[6] = test system: SW-620
[7] = test system: SK-MEL-5
[8] = test system: UO-31
[9] = test system: MDA-MB-435
[10] = test system: K562
[11] = test system: OVCAR-3
[12] = test system: SNB-75
[13] = test system: SF-268
[14] = test system: CCRF-CEM
[15] = test system: PC-3
[16] = test system: HCT-116
[17] = test system: M14
[18] = test system: T47D
[19] = test system: OVCAR-4
[20] = test system: HT-29

Row | Structure (SMILES) | GI50 [1] | GI50 [2] | GI50 [3] | GI50 [4] | GI50 [5] | GI50 [6] | GI50 [7] | GI50 [8] | GI50 [9] | GI50 [10] | GI50 [11] | GI50 [12] | GI50 [13] | GI50 [14] | GI50 [15] | GI50 [16] | GI50 [17] | GI50 [18] | GI50 [19] | GI50 [20]
1 | Cc1cn([C@@H]2O[C@H](CO)[C@@H](O)[C@@H]2O)c(=O)[nH]c1=O | > 1000 µM (inactive) | > 1000 µM (inactive) | > 1000 µM (inactive) | > 1000 µM (inactive) | > 1000 µM (inactive) | > 1000 µM (inactive) | > 1000 µM (inactive) | > 1000 µM (inactive) | > 1000 µM (inactive) | > 1000 µM (inactive) | > 1000 µM (inactive) | > 1000 µM (inactive) | > 1000 µM (inactive) | > 1000 µM (inactive) | > 1000 µM (inactive) | > 1000 µM (inactive) | > 1000 µM (inactive) | > 1000 µM (inactive) | > 1000 µM (inactive) | > 1000 µM (inactive)
2 | CC1CCC2C(C)C3C(CC4C5CC=C6CC(OC7OC(CO)C(O)C(OC8OC(CO)C(O)C(O)C8O)C7OC7OC(C)C(O)C(O)C7O)CCC6(C)C5CCC43C)N2C1 (stereo not given) | 9.27 µM (inactive) | 19.5 µM (inactive) | 15 µM (inactive) | 18.9 µM (inactive) | 12.4 µM (inactive) | 15.6 µM (inactive) | 18.1 µM (inactive) | 6.37 µM (inactive) | 9.12 µM (inactive) | 16 µM (inactive) | 17.4 µM (inactive) | 9.57 µM (inactive) | 15.9 µM (inactive) | 9.66 µM (inactive) | 14.9 µM (inactive) | 11.1 µM (inactive) | 4.67 µM (inactive) | 19.3 µM (inactive) | 8.13 µM (inactive) | 12 µM (inactive)
3 | CC(C)(C)OC(=O)c1ccc(NCc2cc(O)ccc2O)cc1 | 2.62 µM (inactive) | 4.34 µM (inactive) | 2.13 µM (inactive) | 7.78 µM (inactive) | 1.77 µM (inactive) | 3.36 µM (inactive) | 3.65 µM (inactive) | 1.22 µM (inactive) | 2.96 µM (inactive) | 2.03 µM (inactive) | 1.04 µM (active) | 3.4 µM (inactive) | 3.44 µM (inactive) | 0.363 µM (active) | 1.5 µM (inactive) | 3.49 µM (inactive) | 1.94 µM (inactive) | 1.61 µM (inactive) | 1.75 µM (inactive) | 13.5 µM (inactive)
4 | BrCc1ccc2ccc3ccc(CBr)nc3c2n1 | 9.59 µM (inactive) | 3.12 µM (inactive) | 4.73 µM (inactive) | 8.18 µM (inactive) | 4.01 µM (inactive) | 2.2 µM (inactive) | 2.77 µM (inactive) | 2.12 µM (inactive) | 4.12 µM (inactive) | 2.53 µM (inactive) | 1.72 µM (inactive) | 1.32 µM (inactive) | 3.27 µM (inactive) | 0.995 µM (active) | 1.79 µM (inactive) | 2.34 µM (inactive) | 2.85 µM (inactive) | 1.42 µM (inactive) | 3.5 µM (inactive) | 1.95 µM (inactive)
5 | Cc1cc(Cc2c(F)c(F)c(C(c3cc(C)no3)c3c(F)c(F)c(F)c(F)c3F)c(F)c2F)on1 (stereo not given) | > 100 µM (inactive) | 9.71 µM (inactive) | > 100 µM (inactive) | > 100 µM (inactive) | > 100 µM (inactive) | 8.02 µM (inactive) | 7.16 µM (inactive) | > 100 µM (inactive) | 3.04 µM (inactive) | 9.46 µM (inactive) | > 27.4 µM (inactive) | 86.7 µM (inactive) | 78.3 µM (inactive) | 62.7 µM (inactive) | 69.5 µM (inactive) | 18.3 µM (inactive) | 24 µM (inactive) | > 100 µM (inactive) | > 100 µM (inactive) | 6.08 µM (inactive)
6 | Cc1cn(C2CC(OC(=O)c3ccc(Cl)cc3)C(COC(=O)c3ccc(Cl)cc3)O2)c(=O)[nH]c1=O (stereo not given) | > 100 µM (inactive) | > 100 µM (inactive) | > 100 µM (inactive) | > 100 µM (inactive) | > 100 µM (inactive) | > 100 µM (inactive) | > 100 µM (inactive) | > 100 µM (inactive) | > 100 µM (inactive) | > 100 µM (inactive) | > 100 µM (inactive) | > 100 µM (inactive) | > 100 µM (inactive) | > 100 µM (inactive) | > 100 µM (inactive) | > 100 µM (inactive) | > 100 µM (inactive) | > 100 µM (inactive) | > 100 µM (inactive) | > 100 µM (inactive)
7 | CC1=CC=C2c3ccccc3C=CN2C(=O)C1 | 23 µM (inactive) | 22.4 µM (inactive) | 56.5 µM (inactive) | 52 µM (inactive) | > 100 µM (inactive) | 49.8 µM (inactive) | 22.1 µM (inactive) | 30.9 µM (inactive) | 34.8 µM (inactive) | 37.8 µM (inactive) | 95.3 µM (inactive) | 38.4 µM (inactive) | 60.3 µM (inactive) | 38.8 µM (inactive) | 50 µM (inactive) | 40.8 µM (inactive) | 62.1 µM (inactive) | 32.4 µM (inactive) | > 100 µM (inactive) | 51.4 µM (inactive)
8 | O=C(CC1(O)C(=O)Nc2c(Cl)ccc(Cl)c21)c1ccco1 (stereo not given) | 22.6 µM (inactive) | 26.1 µM (inactive) | 27.2 µM (inactive) | 40.3 µM (inactive) | 18.3 µM (inactive) | 20.1 µM (inactive) | 17.8 µM (inactive) | 35.8 µM (inactive) | 1.85 µM (inactive) | > 10 µM (inactive) | 13.5 µM (inactive) | 27 µM (inactive) | 25.4 µM (inactive) | 5.09 µM (inactive) | 28.2 µM (inactive) | 14 µM (inactive) | 14.5 µM (inactive) | 35.6 µM (inactive) | 7.06 µM (inactive) | 22.4 µM (inactive)
9 | COC1=C(C)C(=O)c2c(c(COC(N)=O)c3n2CC(OC(C)=O)C3OC(C)=O)C1=O (stereo not given) | 0.202 µM (active) | 0.191 µM (active) | 0.0789 µM (active) | 0.0251 µM (active) | 0.0785 µM (active) | 0.0206 µM (active) | 0.133 µM (active) | 0.15 µM (active) | 0.165 µM (active) | 0.0191 µM (active) | 0.09 µM (active) | 0.208 µM (active) | 0.0766 µM (active) | 0.153 µM (active) | 0.131 µM (active) | 0.0204 µM (active) | 0.0977 µM (active) | 0.757 µM (active) | 0.279 µM (active) | 0.036 µM (active)
10 | COc1ccc(/C=C/C(=O)c2nc3ccccc3[nH]2)cc1 | 15.1 µM (inactive) | 28.6 µM (inactive) | 21 µM (inactive) | 17.3 µM (inactive) | 6.07 µM (inactive) | 13.5 µM (inactive) | 17.9 µM (inactive) | 15.7 µM (inactive) | 11.7 µM (inactive) | 4.88 µM (inactive) | 17.8 µM (inactive) | 19.8 µM (inactive) | 15.2 µM (inactive) | > 100 µM (inactive) | 21.8 µM (inactive) | 5.37 µM (inactive) | 20.3 µM (inactive) | 10.7 µM (inactive) | 21.1 µM (inactive) | 7.03 µM (inactive)
11 | Nc1ncnc2c1ccn2C/C=C/CO | > 100 µM (inactive) | > 100 µM (inactive) | > 100 µM (inactive) | > 100 µM (inactive) | > 100 µM (inactive) | > 100 µM (inactive) | > 100 µM (inactive) | > 100 µM (inactive) | > 100 µM (inactive) | > 100 µM (inactive) | > 100 µM (inactive) | > 100 µM (inactive) | > 100 µM (inactive) | > 100 µM (inactive) | > 100 µM (inactive) | > 100 µM (inactive) | > 100 µM (inactive) | > 100 µM (inactive) | > 100 µM (inactive) | > 100 µM (inactive)
12 | COc1ccc2cc3c4cc5c(cc4cc[n+]3cc2c1OC)OCO5 | 6.22 µM (inactive) | 22.8 µM (inactive) | 2.37 µM (inactive) | 30.3 µM (inactive) | 8.11 µM (inactive) | 5.27 µM (inactive) | 3.39 µM (inactive) | 36.3 µM (inactive) | 6.95 µM (inactive) | 16.6 µM (inactive) | 3.87 µM (inactive) | 27.8 µM (inactive) | 2.94 µM (inactive) | 6.43 µM (inactive) | 14.2 µM (inactive) | 15.1 µM (inactive) | 15.2 µM (inactive) | 17.4 µM (inactive) | 20.6 µM (inactive) | 26.3 µM (inactive)
13 | CN1C(=O)[C@H](c2c[nH]c3ccccc23)[C@H](c2c[nH]c3ccccc23)C1=O | 29.4 µM (inactive) | 22.3 µM (inactive) | 31 µM (inactive) | 48.3 µM (inactive) | 6.97 µM (inactive) | 37.1 µM (inactive) | 22 µM (inactive) | 15.5 µM (inactive) | 26.4 µM (inactive) | 28.9 µM (inactive) | 19.5 µM (inactive) | 34.7 µM (inactive) | 33.3 µM (inactive) | 18.6 µM (inactive) | 24.3 µM (inactive) | 25.8 µM (inactive) | 38.8 µM (inactive) | 87.9 µM (inactive) | 5.32 µM (inactive) | 34.7 µM (inactive)
14 | O=[N+]([O-])c1cc2oc(CSc3ccccc3)nc2cc1Cl | 30.7 µM (inactive) | 26 µM (inactive) | 33.5 µM (inactive) | 37.7 µM (inactive) | 33.9 µM (inactive) | 43.9 µM (inactive) | 16.6 µM (inactive) | 35.9 µM (inactive) | 32.4 µM (inactive) | 36.2 µM (inactive) | 30 µM (inactive) | 26.1 µM (inactive) | 58.7 µM (inactive) | 37.5 µM (inactive) | 48 µM (inactive) | 29.4 µM (inactive) | 32.9 µM (inactive) | 24.9 µM (inactive) | 34.4 µM (inactive) | 28.1 µM (inactive)
